Experimental data from patent publication US5082771A, “Detecting cells using tellurapyrylium dihydroxides” (Eastman Kodak Company, priority 1989, dated 1992).

Tests used:
E. Coli [1] = test: Absorption spectra over time of a system comprising E. Coli and a tellurium (IV) dihydroxide (FIG. 1); format: cell-based; conditions: for absorption maximum: FIG. 1, system comprising E. Coli
Source text: FIG. 1 comprises a series of plots showing the change, over time, of the absorption spectrum of a system comprising E. Coli. and a tellurium (IV) dihydroxide. More specifically, the series of plots follows the reduction: [drawing 1] as a function of time.
Over time, as the E. Coli reduces the tellurium (IV) dihydroxide. i.e., the TPDH. the absorption at 510 nm diminishes until it becomes non existent. As the absorption diminishes at 510 nm, a much more intense absorption peak at about 820 nm arises. In other words, the extinction coefficient for the absorption maximum of the TPDH is mu:h less than the extinction coefficient for the absorption maximum for the reduction product. Stated another way, the extinction coefficient for the absorption peak of the reduction product is much greater than the extinction coefficient for the absorption peak of the TPDH.
The time interval between each spectophometric tracing in FIG. 1 is about 30 seconds.

[2] = Stability (half life) at 37° C. at various pH values; format: physicochemical
Source text: The stability of the dihydroxycompounds used in this invention is generally very good.

E. Coli [3] = test: Reduction of Te/Te Dye by suspension of E. Coli cells, change in optical density as a function of time (Example 2); format: cell-based; conditions: 1 × 10^-4 M, pH about 7.8
Source text: The final concentration of the TPDN was about 1×10^-4 molar after dilution.
The stock solutions of the TPDH can be prepared in a concentration within the range of from about 5×10^-2 and about 5×10^-4 molar.

[4] = Maximum absorption and extinction coefficient of the Te(IV) dihydroxides in water; format: physicochemical; conditions: for extinction coefficient (ε): at λmax
Source text: The maximum absorption and extinction coefficient for the compounds in water is listed below: […]

## CC(C)(C)C1=CC(=CC=Cc2cc(C(C)(C)C)[te+]c(C(C)(C)C)c2)C=C(C(C)(C)C)[Te]1 [compound (b), 4-[3-[2,6-bis(1,1-dimethylethyl-4H-tellurin-4-ylidene]-1-propenyl]-2,6-bis(1,1-dimethylethyl) -tellurinium chloride]
E. Coli [1]
  absorption maximum: about 820 nm

## CC(C)(C)C1=CC(=CC=Cc2cc(C(C)(C)C)[te+]c(C(C)(C)C)c2)C=C(C(C)(C)C)[Te]1(O)O [drawing 16]
[2]; pH 4.58
  half-life: 3.5 h
[2]; pH 5.98
  half-life: 4.5 h
[2]; pH 7.4, pH 7.40
  half-life: 12 h
[2]; pH 8.5, pH 8.50
  half-life: 12 h
[2]; pH 9.03
  half-life: 8.5 h
[2]; pH 10.2, pH 10.20
  half-life: 8 h
[2]; pH 11.98
  half-life: 6.3 h

## CC(C)(C)C1=CC(=CC=Cc2cc(C(C)(C)C)[te+]c(C(C)(C)C)c2)C=C(C(C)(C)C)[Te]1(O)O [Te/Te Dye, 4[3[2,6-bis(1,1-dimethylethyl)-tellurinium-4-yl]-2-propenylidene]-1,1-dihydroxy-2,6-bis(1,1-dimethylethyl)-1,1-dihydro-4H-tellurin chloride]
E. Coli [3]; 10^5 Cells/mL, 0.0 s
  Optical Density (O.D.) @ 820 nm: 0.05
E. Coli [3]; 10^5 Cells/mL, 60 s
  Optical Density (O.D.) @ 820 nm: 0.15
E. Coli [3]; 10^5 Cells/mL, 120 s
  Optical Density (O.D.) @ 820 nm: 0.90
E. Coli [3]; 10^5 Cells/mL, 180 s
  Optical Density (O.D.) @ 820 nm: 0.65
E. Coli [3]; 10^5 Cells/mL, 240 s
  Optical Density (O.D.) @ 820 nm: 0.89
E. Coli [3]; 10^5 Cells/mL, 300 s
  Optical Density (O.D.) @ 820 nm: 0.98
E. Coli [3]; 10^5 Cells/mL, 360 s
  Optical Density (O.D.) @ 820 nm: 1.13
E. Coli [3]; 10^5 Cells/mL, 420 s
  Optical Density (O.D.) @ 820 nm: 1.18
E. Coli [3]; 10^5 Cells/mL, 480 s
  Optical Density (O.D.) @ 820 nm: 1.23
E. Coli [3]; 10^5 Cells/mL, 540 s
  Optical Density (O.D.) @ 820 nm: 1.24
E. Coli [3]; 10^6 Cells/mL, 0.0 s
  Optical Density (O.D.) @ 820 nm: 0.05
E. Coli [3]; 10^6 Cells/mL, 30 s
  Optical Density (O.D.) @ 820 nm: 0.10
E. Coli [3]; 10^6 Cells/mL, 60 s
  Optical Density (O.D.) @ 820 nm: 0.32
E. Coli [3]; 10^6 Cells/mL, 120 s
  Optical Density (O.D.) @ 820 nm: 0.63
E. Coli [3]; 10^6 Cells/mL, 150 s
  Optical Density (O.D.) @ 820 nm: 0.84
E. Coli [3]; 10^6 Cells/mL, 210 s
  Optical Density (O.D.) @ 820 nm: 1.15
E. Coli [3]; 10^6 Cells/mL, 270 s
  Optical Density (O.D.) @ 820 nm: 1.46
E. Coli [3]; 10^6 Cells/mL, 300 s
  Optical Density (O.D.) @ 820 nm: 1.60
E. Coli [3]; 10^6 Cells/mL, 330 s
  Optical Density (O.D.) @ 820 nm: 1.73
E. Coli [3]; 10^6 Cells/mL, 390 s
  Optical Density (O.D.) @ 820 nm: 2.00
[4]
  maximum absorption (λmax): 510 nm
  extinction coefficient (ε): 56,000
E. Coli [1]; FIG. 1, before reduction
  absorption at about 820 nm: practically no absorption
E. Coli [1]
  absorption maximum: about 510 nm
E. Coli [1]; over time, tracings about every 30 seconds
  absorption at about 510 nm after reduction by E. Coli: non existent

## CC(C)(C)C1=CC(=CC=Cc2cc(C(C)(C)C)[s+]c(C(C)(C)C)c2)C=C(C(C)(C)C)[Te]1(O)O [Te/S Dye]
[4]
  maximum absorption (λmax): 480 nm
  extinction coefficient (ε): 52,000

## CC(C)(C)C1=CC(=CC=Cc2cc(C(C)(C)C)[se+]c(C(C)(C)C)c2)C=C(C(C)(C)C)[Te]1(O)O [Te/Se Dye]
[4]
  maximum absorption (λmax): 502 nm
  extinction coefficient (ε): 55,000
